In publication PMC7316778 (Nature Communications, 2020):
Several values for one entry are separate records, joined by “and”; a condition that tells them apart may be missing. Equal values may be shown once. Read-outs that look alike come from different tables or passages of the source.

What was measured:
ACVR2B = ACVR2B (Homo sapiens, UniProt Q13705); experiment: SelectScreen kinase assay
Description: (§1) Selectivity profiling assays were performed by the Invitrogen SelectScreen™ Services. […] The concentration of ATP was selected to be equal to the KM, unless indicated otherwise.

CAMK2G (CaMKII gamma) = CAMK2G (CaMKII gamma) (Homo sapiens, UniProt Q13555); experiment: SelectScreen kinase assay
Description: as §1

CDK6/cyclin D1 = CDK6/cyclin D1 (Homo sapiens, UniProt Q00534); experiment: SelectScreen kinase assay; conditions: 1 h, 1 μM WEL028, 1 h preincubation
Description: as §1

GRK6 = GRK6 (Homo sapiens, UniProt P43250); experiment: SelectScreen kinase assay
Description: as §1

MAP2K4 (MEK4) = biological target: T1, MAP2K4 (MEK4) (Homo sapiens, UniProt P45985); experiment: SelectScreen kinase assay
T1 sequence (P45985 1-399): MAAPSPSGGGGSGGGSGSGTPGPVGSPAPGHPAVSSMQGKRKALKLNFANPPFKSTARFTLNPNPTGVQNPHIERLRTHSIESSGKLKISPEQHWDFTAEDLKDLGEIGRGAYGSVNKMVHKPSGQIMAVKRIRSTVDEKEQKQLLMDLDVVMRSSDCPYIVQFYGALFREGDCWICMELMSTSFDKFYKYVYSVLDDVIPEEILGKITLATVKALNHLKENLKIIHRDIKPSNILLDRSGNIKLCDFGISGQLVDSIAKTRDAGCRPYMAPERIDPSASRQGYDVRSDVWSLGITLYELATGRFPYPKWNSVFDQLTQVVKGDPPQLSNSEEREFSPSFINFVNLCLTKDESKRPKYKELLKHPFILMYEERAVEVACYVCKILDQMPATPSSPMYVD
Description: as §1

MAP3K10 (MLK2) = MAP3K10 (MLK2) (Homo sapiens, UniProt Q02779); experiment: SelectScreen kinase assay
Chain of MAP3K10 (MLK2) (Q02779 whole entry): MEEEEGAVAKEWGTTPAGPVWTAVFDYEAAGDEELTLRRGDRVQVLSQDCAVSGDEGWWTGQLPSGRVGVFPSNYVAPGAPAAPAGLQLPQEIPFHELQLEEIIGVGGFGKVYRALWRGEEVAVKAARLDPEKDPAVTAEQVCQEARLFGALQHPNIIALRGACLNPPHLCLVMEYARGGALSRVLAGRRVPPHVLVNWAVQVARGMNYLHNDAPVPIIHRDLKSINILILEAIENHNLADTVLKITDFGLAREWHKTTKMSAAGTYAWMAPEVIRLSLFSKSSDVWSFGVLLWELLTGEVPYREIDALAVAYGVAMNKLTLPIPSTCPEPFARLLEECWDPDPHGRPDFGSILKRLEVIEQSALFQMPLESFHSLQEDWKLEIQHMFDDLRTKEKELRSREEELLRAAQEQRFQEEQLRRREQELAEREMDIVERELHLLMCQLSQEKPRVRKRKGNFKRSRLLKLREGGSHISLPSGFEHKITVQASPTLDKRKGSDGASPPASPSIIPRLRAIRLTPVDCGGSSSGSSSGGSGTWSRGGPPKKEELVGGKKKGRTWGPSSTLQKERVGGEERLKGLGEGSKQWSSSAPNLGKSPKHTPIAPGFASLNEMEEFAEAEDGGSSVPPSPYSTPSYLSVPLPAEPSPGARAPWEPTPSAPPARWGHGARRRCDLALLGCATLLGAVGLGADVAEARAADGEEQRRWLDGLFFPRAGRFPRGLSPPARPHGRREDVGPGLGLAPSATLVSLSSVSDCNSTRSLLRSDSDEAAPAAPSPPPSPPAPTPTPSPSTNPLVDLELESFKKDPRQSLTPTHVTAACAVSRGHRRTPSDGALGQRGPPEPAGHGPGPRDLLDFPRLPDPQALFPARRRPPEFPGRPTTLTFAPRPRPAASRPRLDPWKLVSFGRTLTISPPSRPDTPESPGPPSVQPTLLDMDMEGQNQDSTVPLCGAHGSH
Description: as §1

MARK4 = biological target: T2, MARK4 (Homo sapiens, UniProt Q96L34); experiment: SelectScreen kinase assay
T2 sequence (Q96L34 1-752): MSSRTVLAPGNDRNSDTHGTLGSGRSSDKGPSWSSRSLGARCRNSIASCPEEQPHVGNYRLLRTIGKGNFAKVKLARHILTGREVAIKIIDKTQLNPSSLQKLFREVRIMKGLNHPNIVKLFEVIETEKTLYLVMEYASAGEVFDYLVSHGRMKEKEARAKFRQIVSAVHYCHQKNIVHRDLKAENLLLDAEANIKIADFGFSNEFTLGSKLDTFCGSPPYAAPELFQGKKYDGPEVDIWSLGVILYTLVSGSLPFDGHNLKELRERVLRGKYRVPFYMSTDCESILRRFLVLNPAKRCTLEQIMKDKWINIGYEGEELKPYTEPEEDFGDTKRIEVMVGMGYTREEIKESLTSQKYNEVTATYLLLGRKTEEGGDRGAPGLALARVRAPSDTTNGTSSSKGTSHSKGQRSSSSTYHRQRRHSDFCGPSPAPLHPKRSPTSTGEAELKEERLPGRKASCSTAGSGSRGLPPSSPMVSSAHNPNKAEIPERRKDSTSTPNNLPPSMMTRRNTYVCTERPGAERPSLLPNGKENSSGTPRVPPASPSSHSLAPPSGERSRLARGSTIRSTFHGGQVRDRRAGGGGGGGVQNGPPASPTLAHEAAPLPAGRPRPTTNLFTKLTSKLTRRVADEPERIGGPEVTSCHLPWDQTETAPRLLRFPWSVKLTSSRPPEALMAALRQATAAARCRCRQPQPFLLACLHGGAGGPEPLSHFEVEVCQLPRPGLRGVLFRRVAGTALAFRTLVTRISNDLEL
Description: as §1

MASTL = MASTL (Homo sapiens, UniProt Q96GX5); experiment: SelectScreen kinase assay
Chain of MASTL (Q96GX5 whole entry): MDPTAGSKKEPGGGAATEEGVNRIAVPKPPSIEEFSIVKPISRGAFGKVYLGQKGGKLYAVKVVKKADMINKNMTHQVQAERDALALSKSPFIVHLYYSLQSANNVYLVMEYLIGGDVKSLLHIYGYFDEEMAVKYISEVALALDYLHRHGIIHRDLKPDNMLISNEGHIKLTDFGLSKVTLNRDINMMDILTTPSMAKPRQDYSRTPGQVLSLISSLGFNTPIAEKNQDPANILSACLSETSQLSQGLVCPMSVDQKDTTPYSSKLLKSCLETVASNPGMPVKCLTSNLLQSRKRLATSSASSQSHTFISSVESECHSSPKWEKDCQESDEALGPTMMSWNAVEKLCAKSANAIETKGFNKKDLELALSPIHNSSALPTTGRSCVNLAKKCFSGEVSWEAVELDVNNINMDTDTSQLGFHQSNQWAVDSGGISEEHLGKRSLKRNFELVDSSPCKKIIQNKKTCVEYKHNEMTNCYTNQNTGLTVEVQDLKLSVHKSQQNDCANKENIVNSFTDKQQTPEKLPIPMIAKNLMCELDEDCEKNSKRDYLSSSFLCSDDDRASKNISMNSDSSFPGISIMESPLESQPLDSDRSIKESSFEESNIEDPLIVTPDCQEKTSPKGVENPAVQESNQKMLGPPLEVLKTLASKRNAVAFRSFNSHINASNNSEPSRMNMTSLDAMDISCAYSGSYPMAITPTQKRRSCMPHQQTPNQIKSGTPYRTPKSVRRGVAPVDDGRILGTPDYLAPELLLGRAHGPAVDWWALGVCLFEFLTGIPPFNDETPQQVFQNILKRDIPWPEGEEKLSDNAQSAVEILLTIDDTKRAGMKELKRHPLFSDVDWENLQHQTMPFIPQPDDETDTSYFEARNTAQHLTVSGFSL
Description: as §1

PAK3 = PAK3 (Homo sapiens, UniProt O75914); experiment: SelectScreen kinase assay
Description: as §1

WNK3 = WNK3 (Homo sapiens, UniProt Q9BYP7); experiment: SelectScreen kinase assay
Chain of WNK3 (Q9BYP7 whole entry): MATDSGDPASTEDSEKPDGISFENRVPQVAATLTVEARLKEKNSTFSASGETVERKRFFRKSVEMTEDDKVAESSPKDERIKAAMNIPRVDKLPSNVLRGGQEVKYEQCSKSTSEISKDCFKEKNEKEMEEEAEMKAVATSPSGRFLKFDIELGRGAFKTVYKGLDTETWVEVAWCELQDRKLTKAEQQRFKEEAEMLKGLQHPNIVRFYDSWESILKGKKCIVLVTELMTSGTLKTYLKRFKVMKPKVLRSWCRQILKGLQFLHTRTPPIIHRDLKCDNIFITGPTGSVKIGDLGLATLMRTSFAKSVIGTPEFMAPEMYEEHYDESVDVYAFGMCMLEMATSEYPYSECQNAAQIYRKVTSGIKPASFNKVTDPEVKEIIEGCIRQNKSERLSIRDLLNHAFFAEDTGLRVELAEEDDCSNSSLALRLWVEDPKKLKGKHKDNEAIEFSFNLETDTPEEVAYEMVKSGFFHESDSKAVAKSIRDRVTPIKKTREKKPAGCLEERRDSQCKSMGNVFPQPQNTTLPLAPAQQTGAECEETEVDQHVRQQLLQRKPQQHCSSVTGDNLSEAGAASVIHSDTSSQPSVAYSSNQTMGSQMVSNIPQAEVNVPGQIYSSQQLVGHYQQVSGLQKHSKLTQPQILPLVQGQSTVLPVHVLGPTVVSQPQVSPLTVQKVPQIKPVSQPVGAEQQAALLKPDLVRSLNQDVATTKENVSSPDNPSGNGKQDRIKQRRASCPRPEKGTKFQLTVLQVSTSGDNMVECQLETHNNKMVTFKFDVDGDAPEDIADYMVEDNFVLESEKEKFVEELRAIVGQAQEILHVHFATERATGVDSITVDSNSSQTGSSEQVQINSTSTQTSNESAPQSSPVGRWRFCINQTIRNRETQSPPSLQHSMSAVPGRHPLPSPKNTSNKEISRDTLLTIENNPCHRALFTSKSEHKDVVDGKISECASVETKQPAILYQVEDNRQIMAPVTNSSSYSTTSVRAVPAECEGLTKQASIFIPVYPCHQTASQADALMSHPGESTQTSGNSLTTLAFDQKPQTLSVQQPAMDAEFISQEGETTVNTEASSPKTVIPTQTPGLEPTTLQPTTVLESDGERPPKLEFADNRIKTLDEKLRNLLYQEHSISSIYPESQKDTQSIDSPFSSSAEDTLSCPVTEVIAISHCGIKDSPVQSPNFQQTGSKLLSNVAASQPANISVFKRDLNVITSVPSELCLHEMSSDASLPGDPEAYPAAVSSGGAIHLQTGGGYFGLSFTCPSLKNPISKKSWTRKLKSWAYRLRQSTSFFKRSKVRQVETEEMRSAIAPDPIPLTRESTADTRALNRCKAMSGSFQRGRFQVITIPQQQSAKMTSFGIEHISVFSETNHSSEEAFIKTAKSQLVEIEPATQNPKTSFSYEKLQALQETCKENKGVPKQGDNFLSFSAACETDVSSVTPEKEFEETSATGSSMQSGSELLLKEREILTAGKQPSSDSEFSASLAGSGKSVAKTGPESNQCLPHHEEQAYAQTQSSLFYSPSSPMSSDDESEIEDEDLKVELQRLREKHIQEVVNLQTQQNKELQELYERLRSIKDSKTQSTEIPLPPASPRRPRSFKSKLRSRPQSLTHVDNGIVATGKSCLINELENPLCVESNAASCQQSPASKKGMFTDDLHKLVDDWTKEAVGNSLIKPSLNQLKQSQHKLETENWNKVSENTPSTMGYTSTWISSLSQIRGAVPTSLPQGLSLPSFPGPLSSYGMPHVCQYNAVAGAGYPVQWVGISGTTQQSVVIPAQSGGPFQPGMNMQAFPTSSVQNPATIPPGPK
Description: as §1

FES^S700C = FES^S700C (Homo sapiens, UniProt P07332, S700C); experiment: FES Y713 autophosphorylation immunoblot, transfected HEK293T cells; assay type: cell-based; parameters: expressed in transfected cells; host or cells: HEK293T (transient, PEI); conditions: WEL028 100 nM
Chain of FES^S700C (P07332 whole entry S700C): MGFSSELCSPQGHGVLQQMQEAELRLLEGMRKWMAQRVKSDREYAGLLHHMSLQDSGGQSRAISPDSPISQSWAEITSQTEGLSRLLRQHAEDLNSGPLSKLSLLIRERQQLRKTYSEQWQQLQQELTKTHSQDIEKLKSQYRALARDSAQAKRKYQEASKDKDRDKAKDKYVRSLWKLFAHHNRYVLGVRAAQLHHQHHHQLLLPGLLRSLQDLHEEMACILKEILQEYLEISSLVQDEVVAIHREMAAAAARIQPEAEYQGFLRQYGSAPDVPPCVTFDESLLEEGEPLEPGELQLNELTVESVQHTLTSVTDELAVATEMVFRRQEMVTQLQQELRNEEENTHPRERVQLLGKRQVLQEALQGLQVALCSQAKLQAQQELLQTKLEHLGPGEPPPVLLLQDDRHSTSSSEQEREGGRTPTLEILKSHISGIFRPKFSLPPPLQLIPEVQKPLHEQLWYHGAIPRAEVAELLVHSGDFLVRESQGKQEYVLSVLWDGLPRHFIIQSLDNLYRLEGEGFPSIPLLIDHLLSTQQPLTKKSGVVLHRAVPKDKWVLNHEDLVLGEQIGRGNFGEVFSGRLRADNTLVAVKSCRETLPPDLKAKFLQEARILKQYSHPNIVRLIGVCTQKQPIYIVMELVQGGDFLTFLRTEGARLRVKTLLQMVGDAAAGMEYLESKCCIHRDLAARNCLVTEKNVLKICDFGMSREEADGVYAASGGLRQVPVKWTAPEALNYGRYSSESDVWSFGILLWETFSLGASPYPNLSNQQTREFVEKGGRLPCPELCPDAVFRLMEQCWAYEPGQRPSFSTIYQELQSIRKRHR
Description: Samples were resolved by SDS-PAGE as described above, but transferred to 0.2 μm polyvinylidene difluoride membranes by Trans-Blot Turbo™ Transfer system (Bio-Rad) directly after fluorescence scanning. Membranes were washed with TBS (50 mM Tris pH 7.5, 150 mM NaCl) and blocked with 5% milk in TBS-T (50 mM Tris pH 7.5, 150 mM NaCl, 0.05% Tween-20) for 1 h at rt.
Membranes were then incubated with primary antibody in 5% milk in TBS-T (FLAG, V5, β-actin; o/n at 4 °C) or washed three times with TBS-T, followed by incubation with primary antibody in 5% BSA in TBS-T (other antibodies, o/n at 4 °C). Membranes were washed three times with TBS-T, incubated with matching secondary antibody in 5% milk in TBS-T (1:5000, 1 h at rt) and then washed three times with TBS-T and once with TBS. Luminol development solution (10 mL of 1.4 mM luminol in 100 mM Tris pH 8.8 + 100 µL of 6.7 mM p-coumaric acid in DMSO + 3 µL of 30% (v/v) H2O2) or Clarity Max™ ECL Substrate (Bio-Rad) was added and chemiluminescence was detected on ChemiDoc™ MP System.

[1] = 1 h, 1 μM WEL028, 1 h preincubation

Chain of ACVR2B (Q13705 19-512): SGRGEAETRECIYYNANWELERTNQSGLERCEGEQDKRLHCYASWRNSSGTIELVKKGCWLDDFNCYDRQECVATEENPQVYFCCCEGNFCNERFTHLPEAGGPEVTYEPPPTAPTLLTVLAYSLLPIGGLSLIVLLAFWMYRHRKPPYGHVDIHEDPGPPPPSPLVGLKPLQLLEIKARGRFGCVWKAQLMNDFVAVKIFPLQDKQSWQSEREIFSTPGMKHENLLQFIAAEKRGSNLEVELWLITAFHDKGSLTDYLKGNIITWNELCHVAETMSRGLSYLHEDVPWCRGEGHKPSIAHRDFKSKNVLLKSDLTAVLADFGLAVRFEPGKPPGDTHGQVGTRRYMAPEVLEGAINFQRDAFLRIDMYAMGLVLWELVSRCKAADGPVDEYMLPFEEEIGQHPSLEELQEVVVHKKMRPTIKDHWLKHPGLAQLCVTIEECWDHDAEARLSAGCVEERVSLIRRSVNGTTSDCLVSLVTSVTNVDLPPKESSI

C#CCOc1ccc(Nc2ncc(Cl)c(Nc3ccccc3NC(=O)C=C)n2)c(OC)c1 [Compound 6]
Inhibition (%) (ACVR2B; 1 μM WEL028, 1 h preincubation): 9%
Inhibition at 1 µM (%) (ACVR2B; ACVR2B, 1 µM, LanthaScreen Binding, listed as WEL028, 1 µM): 7%
inhibition at 1 µM (ACVR2B; read-out: Inhibition at 1 µM (%), ACVR2B, 1 µM, LanthaScreen Binding): 12%
inhibition at 1 µM (CAMK2G (CaMKII gamma); [1]): 3%
Inhibition at 1 µM (%) (CAMK2G (CaMKII gamma); CAMK2G (CaMKII gamma), 1 µM, LanthaScreen Binding): 13%
inhibition at 1 µM (CDK6/cyclin D1): -6%
inhibition at 1 µM (GRK6; 1 h): 0%
inhibition at 1 µM (GRK6; read-out: Inhibition at 1 µM (%)): 0%
IC50 (MAP2K4 (MEK4)): 3.98 nM
inhibition at 1 µM (MAP2K4 (MEK4); [1]): 104%
Apparent fold selectivity (MAP2K4 (MEK4); IC50 on that kinase divided by IC50 on FES^S700C): 1 fold
inhibition at 1 µM (MAP2K4 (MEK4); read-out: Inhibition at 1 µM (%), MAP2K4 (MEK4), 1 µM, LanthaScreen Binding): 103%
inhibition at 1 µM (MAP3K10 (MLK2); [1]): 4%
Inhibition at 1 µM (%) (MAP3K10 (MLK2); MAP3K10 (MLK2), 1 µM, LanthaScreen Binding, listed as WEL028, 1 µM): 5%
inhibition at 1 µM (MAP3K10 (MLK2); read-out: Inhibition at 1 µM (%), MAP3K10 (MLK2), 1 µM, LanthaScreen Binding): 4%
Inhibition (%) (MARK4; 1 μM WEL028, 1 h preincubation): 8%
Inhibition at 1 µM (%) (MARK4; MARK4, 1 µM, ZLYTE, ATP Km app, listed as WEL028, 1 µM): 6%
inhibition at 1 µM (MARK4; read-out: Inhibition at 1 µM (%), MARK4, 1 µM, ZLYTE, ATP Km app): 9%
Inhibition (%) (MASTL; 1 μM WEL028, 1 h preincubation): 3%
Inhibition at 1 µM (%) (MASTL; MASTL, 1 µM, LanthaScreen Binding, listed as WEL028, 1 µM): 6% and 0%
inhibition at 1 µM (PAK3; [1]): 7%
Inhibition at 1 µM (%) (PAK3; PAK3, 1 µM, ZLYTE, ATP Km app, listed as WEL028, 1 µM): 6%
inhibition at 1 µM (PAK3; read-out: Inhibition at 1 µM (%), PAK3, 1 µM, ZLYTE, ATP Km app): 7%
Inhibition at 1 µM (%) (WNK3; 1 µM, LanthaScreen Binding, listed as WEL028, 1 µM): 5% and 1%
inhibition at 1 µM (WNK3; [1]): 3%
Relative FES labeling (%) (FES^S700C; Fig. 4i, anti-phospho-FES Y713 band intensity, replicates, normalized to vehicle): 6.91% and 5.589% and 0.4481%
Autophosphorylation of Tyr713 (FES^S700C): fully abolished autophosphorylation
